{
  "source": "paper PMC11428215",
  "about": "“Unveiling a New Antimicrobial Peptide with Efficacy against P. aeruginosa and K. pneumoniae from Mangrove-Derived Paenibacillus thiaminolyticus NNS5-6 and Genomic Analysis” (Antibiotics, 2024)",
  "key": {"P. aeruginosa TISTR 357 [1]": {"system": "P. aeruginosa TISTR 357", "format": "cell-based, Pseudomonas aeruginosa", "settings": "TISTR 357, 24 h", "procedure": "(§1) The MIC and MBC of the purified AMP were determined using the broth microdilution method following the guidance provided by the Clinical and Laboratory Standards Institute (CLSI). P. aeruginosa TISTR 357 and K. pneumoniae TISTR 1383 were cultured on MH agar and incubated at 37 °C for 18 h. A single colony of the tested bacteria was suspended in 0.85% NaCl until the suspension turbidity reached an OD of 0.1 at 625 nm. The cells were then diluted to 5 × 10^6 CFU/mL using cation-adjusted Mueller Hinton broth (CAMHB). The diluted cell suspension of 10 µL was transferred into each well of a 96-well plate with a final volume of 100 µL per well. The AMP was added to achieve final concentrations ranging from 0.125 to 64 µg/mL. Colistin was used as the positive control, while antibiotic-free samples were used as negative controls. The 96-well plate was incubated at 37 °C for 24 h. Each strain was tested in triplicate. […] Subsequently, 100 µL of each dilution was spread on MH agar and then incubated at 37 °C for 24 h. The MBC was identified as the lowest concentration at which no bacterial colony growth was observed on the agar plate."}, "K. pneumoniae TISTR 1383 [2]": {"system": "K. pneumoniae TISTR 1383", "format": "cell-based, Klebsiella pneumoniae", "settings": "TISTR 1383, 24 h", "procedure": "as §1"}, "P. aeruginosa TISTR 357 [3]": {"system": "P. aeruginosa TISTR 357", "experiment": "Time-kill assay", "format": "cell-based, Pseudomonas aeruginosa", "settings": "for reduction rate of viable cells: from initial treatment until eradication, 5 × 10^5 CFU/mL, CAMHB, 37 °C", "procedure": "(§2) P. aeruginosa TISTR 357 and K. pneumoniae TISTR 1383 were separately adjusted to an initial treatment cell density of 5 × 10^5 CFU/mL with CAMHB. The experiment preparation followed the microdilution assay procedures. […] The reactions were carried out at 37 °C, followed by spreading the entire volume from each well in each treatment condition on MH agar at specific time intervals (0–24 h). The plates were placed in a 37 °C incubator for 24 h before counting the colonies. The trends in bacterial reduction were graphically depicted using a logarithmic scale of viable cells. The bacterial cell reduction was determined within 24 h. Each experiment was performed in triplicate on the 96-well plates."}, "K. pneumoniae TISTR 1383 [4]": {"system": "K. pneumoniae TISTR 1383", "experiment": "Time-kill assay", "format": "cell-based, Klebsiella pneumoniae", "settings": "for reduction rate of viable cells: 5 × 10^5 CFU/mL, CAMHB, 37 °C", "procedure": "as §2"}, "K. pneumoniae TISTR 1383 [5]": {"system": "K. pneumoniae TISTR 1383", "experiment": "Sytox Green uptake assay (cell membrane permeability)", "format": "cell-based, Klebsiella pneumoniae", "settings": "2× MIC; Sytox Green 10 µM, over 24 h; mean ± SD, triplicate", "protocol": "The cell suspension was diluted with the diluent until the OD at 625 nm was equal to 0.1 (1.5 × 10^8 CFU/mL). An aliquot of the diluted cells (100 μL) was introduced into each well and incubated with 10 μM of Sytox Green (Thermo Fisher Scientific Inc., Waltham, MA, USA) in the dark for 15 min. […] After the introduction of the AMP, the cell membrane permeability of treated bacteria was evaluated by monitoring the fluorescence intensity resulting from the penetration of Sytox Green across the compromised cell membrane and subsequently binding to nucleic acid. […] Significant differences in fluorescence intensity of overall time points were analyzed by one-way ANOVA (p-value < 0.05) and post hoc Tukey’s test for multiple comparisons between treated and non-treated conditions [52]."}, "P. aeruginosa TISTR 357 [6]": {"system": "P. aeruginosa TISTR 357", "experiment": "Stability against temperatures, residual antibacterial activity", "format": "physicochemical, Pseudomonas aeruginosa", "settings": "AMP 16 µg/mL, agar well diffusion read-out, % of non-treated AMP, mean ± SD, n = 3", "protocol": "(§3) The AMP was dissolved in sterile purified water and adjusted a final concentration to 16 µg/mL. The sensitivity of the AMP to temperatures of 37, 40, 50, 60, 80, and 100 °C, as well as autoclaving at 121 °C for 15 and 30 min was evaluated. The sensitivity of the AMP to proteolytic enzymes with different digesting characteristics was studied by incubating with a concentration of 1 mg/mL of proteinase K, trypsin, and α-chymotrypsin (Sigma-Aldrich, Warren, MI, USA). The compatibility of the AMP with surfactants was evaluated by exposing the AMP to 1% SDS or 1% Triton X-100 (AppliChem GmbH, Darmstadt, Germany). The degradation of the AMP under various pH conditions, including physiological and extended alkaline conditions, was evaluated by adjusting the pH of the solution to 1.2, 4.5, 6.8, 7.4, 8.0, 10.0, 12.0, and 14.0. After incubation, the pH of the AMP solution was neutralized to the original pH before being assessed for antibacterial activity. The antibacterial assay against P. aeruginosa TISTR 357 was conducted using the agar well diffusion assay in triplicate. The stability profiles are presented as the percentage of the residual activity compared with the non-treatment conditions (mean ± SD), and statistical significance was determined by the Student’s t-test at a p-value < 0.05."}, "P. aeruginosa TISTR 357 [7]": {"system": "P. aeruginosa TISTR 357", "experiment": "Compatibility with surfactants, residual antibacterial activity", "format": "physicochemical, Pseudomonas aeruginosa", "settings": "with 1% SDS, AMP 16 µg/mL, agar well diffusion read-out, % of non-treated AMP, mean ± SD, n = 3", "protocol": "as §3"}},
  "note": "No end group written: not given here.",
  "data": [
    {"sequence": "VKGDGGPGTVYTM [NNS5-6 AMP]", "values": [
      {"measurement": "MBC", "setting": "P. aeruginosa TISTR 357 [1]", "result": 4, "unit": "µg/mL"},
      {"measurement": "MIC", "setting": "P. aeruginosa TISTR 357 [1]", "result": 4, "unit": "µg/mL"},
      {"measurement": "MBC", "setting": "K. pneumoniae TISTR 1383 [2]", "result": 8, "unit": "µg/mL"},
      {"measurement": "MIC", "setting": "K. pneumoniae TISTR 1383 [2]", "result": 4, "unit": "µg/mL"},
      {"measurement": "reduction rate of viable cells", "setting": "P. aeruginosa TISTR 357 [3]; 1× MIC", "result": 0.6297, "unit": "log CFU/h"},
      {"measurement": "treatment time to eradication of viable cells", "setting": "P. aeruginosa TISTR 357 [3]; 1× and 2× MIC", "result": 8, "unit": "h"},
      {"measurement": "reduction rate of viable cells", "setting": "P. aeruginosa TISTR 357 [3]; 2× MIC", "result": 0.6421, "unit": "log CFU/h"},
      {"measurement": "reduction of viable cells", "setting": "K. pneumoniae TISTR 1383 [4]; 1× MIC, until 24 h of treatment, growth only suppressed", "result": "up to 2 log (CFU/mL)"},
      {"measurement": "reduction rate of viable cells", "setting": "K. pneumoniae TISTR 1383 [4]; 1× MIC", "result": 0.0579, "unit": "log CFU/h"},
      {"measurement": "treatment time to eradication of viable cells", "setting": "K. pneumoniae TISTR 1383 [4]; 2× MIC", "result": "≤ 8", "unit": "h"},
      {"measurement": "reduction rate of viable cells", "setting": "K. pneumoniae TISTR 1383 [4]; 2× MIC", "result": 0.5715, "unit": "log CFU/h"},
      {"measurement": "fold increase in fluorescence intensity compared with non-treatment", "setting": "K. pneumoniae TISTR 1383 [5]", "result": "3.21 ± 0.29", "unit": "fold"},
      {"measurement": "% Residual Activity of NNS5-6 AMP against P. aeruginosa TISTR 357", "setting": "P. aeruginosa TISTR 357 [6]; 37 °C, 1 h", "result": "99.39 ± 1.98", "unit": "%"},
      {"measurement": "% Residual Activity of NNS5-6 AMP against P. aeruginosa TISTR 357", "setting": "P. aeruginosa TISTR 357 [6]; 37 °C, 6 h", "result": "99.39 ± 0.61", "unit": "%"},
      {"measurement": "% Residual Activity of NNS5-6 AMP against P. aeruginosa TISTR 357", "setting": "P. aeruginosa TISTR 357 [6]; 37 °C, 12 h", "result": "99.69 ± 0.95", "unit": "%"},
      {"measurement": "% Residual Activity of NNS5-6 AMP against P. aeruginosa TISTR 357", "setting": "P. aeruginosa TISTR 357 [6]; 40 °C, 1 h", "result": "99.80 ± 0.94", "unit": "%"},
      {"measurement": "% Residual Activity of NNS5-6 AMP against P. aeruginosa TISTR 357", "setting": "P. aeruginosa TISTR 357 [6]; 40 °C, 6 h", "result": "99.19 ± 0.93", "unit": "%"},
      {"measurement": "% Residual Activity of NNS5-6 AMP against P. aeruginosa TISTR 357", "setting": "P. aeruginosa TISTR 357 [6]; 40 °C, 12 h", "result": "99.07 ± 0.72", "unit": "%"},
      {"measurement": "% Residual Activity of NNS5-6 AMP against P. aeruginosa TISTR 357", "setting": "P. aeruginosa TISTR 357 [6]; 50 °C, 1 h", "result": "65.16 ± 3.07", "unit": "%"},
      {"measurement": "% Residual Activity of NNS5-6 AMP against P. aeruginosa TISTR 357", "setting": "P. aeruginosa TISTR 357 [6]; 50 °C, 6 h", "result": "0.00 ± 0.00", "unit": "%"},
      {"measurement": "% Residual Activity of NNS5-6 AMP against P. aeruginosa TISTR 357", "setting": "P. aeruginosa TISTR 357 [6]; 50 °C, 12 h", "result": "0.00 ± 0.00", "unit": "%"},
      {"measurement": "% Residual Activity of NNS5-6 AMP against P. aeruginosa TISTR 357", "setting": "P. aeruginosa TISTR 357 [6]; 60 °C, 1 h", "result": "0.00 ± 0.00", "unit": "%"},
      {"measurement": "% Residual Activity of NNS5-6 AMP against P. aeruginosa TISTR 357", "setting": "P. aeruginosa TISTR 357 [6]; 60 °C, 6 h", "result": "0.00 ± 0.00", "unit": "%"},
      {"measurement": "% Residual Activity of NNS5-6 AMP against P. aeruginosa TISTR 357", "setting": "P. aeruginosa TISTR 357 [6]; 60 °C, 12 h", "result": "0.00 ± 0.00", "unit": "%"},
      {"measurement": "% Residual Activity of NNS5-6 AMP against P. aeruginosa TISTR 357", "setting": "P. aeruginosa TISTR 357 [6]; 80 °C, 1 h", "result": "0.00 ± 0.00", "unit": "%"},
      {"measurement": "% Residual Activity of NNS5-6 AMP against P. aeruginosa TISTR 357", "setting": "P. aeruginosa TISTR 357 [6]; 80 °C, 6 h", "result": "0.00 ± 0.00", "unit": "%"},
      {"measurement": "% Residual Activity of NNS5-6 AMP against P. aeruginosa TISTR 357", "setting": "P. aeruginosa TISTR 357 [6]; 80 °C, 12 h", "result": "0.00 ± 0.00", "unit": "%"},
      {"measurement": "% Residual Activity of NNS5-6 AMP against P. aeruginosa TISTR 357", "setting": "P. aeruginosa TISTR 357 [6]; 100 °C, 1 h", "result": "0.00 ± 0.00", "unit": "%"},
      {"measurement": "% Residual Activity of NNS5-6 AMP against P. aeruginosa TISTR 357", "setting": "P. aeruginosa TISTR 357 [6]; 100 °C, 6 h", "result": "0.00 ± 0.00", "unit": "%"},
      {"measurement": "% Residual Activity of NNS5-6 AMP against P. aeruginosa TISTR 357", "setting": "P. aeruginosa TISTR 357 [6]; 100 °C, 12 h", "result": "0.00 ± 0.00", "unit": "%"},
      {"measurement": "% Residual Activity of NNS5-6 AMP against P. aeruginosa TISTR 357", "setting": "P. aeruginosa TISTR 357 [6]; autoclave 121 °C, 15 psi, 15 min (same value in 1 h, 6 h and 12 h)", "result": "0.00 ± 0.00", "unit": "%"},
      {"measurement": "% Residual Activity of NNS5-6 AMP against P. aeruginosa TISTR 357", "setting": "P. aeruginosa TISTR 357 [6]; autoclave 121 °C, 15 psi, 30 min (same value in 1 h, 6 h and 12 h)", "result": "0.00 ± 0.00", "unit": "%"},
      {"measurement": "% Residual Activity of NNS5-6 AMP against P. aeruginosa TISTR 357", "setting": "P. aeruginosa TISTR 357 [7]; 1 h", "result": "116.77 ± 1.80", "unit": "%"},
      {"measurement": "% Residual Activity of NNS5-6 AMP against P. aeruginosa TISTR 357", "setting": "P. aeruginosa TISTR 357 [7]; 6 h", "result": "122.52 ± 1.86", "unit": "%"}
    ]}
  ]
}
